Results from US20200000871A1, “B-1A LYMPHOCYTE AND/OR MACROPHAGE TARGETING AND ACTIVATION TO TREAT MEDICAL CONDITIONS WITH INFLAMMATORY OR AUTOIMMUNE COMPONENTS” (THE BOARD OF TRUSTEES OF THE LELAND STANFORD JUNIOR …, priority 2015, published 2020).
Where no end group is shown, it is not given here.

What was measured:
[1] = tested on: PBMCs; assay: Type 1 IFN response and cytokine production in PBMCs of treated mice; conditions: mouse, in vivo
[2] = tested on: μMT mice with EAE; assay: EAE in B cell-deficient μMT mice, with or without adoptive transfer of B-1a lymphocytes; type: in vivo; conditions: 10 μg daily i.p., no cell transfer
Description: Induction of active EAE in mice by immunization with MOG and adjuvant. EAE was induced in female wild type C57Bl/6 mice or μMT and IL-10 deficient mice on C57B/6 background (Jackson Laboratories) by procedures previously described. Briefly, EAE was induced at 9 weeks of age by subcutaneous immunization in the flank with an emulsion containing 200 μg myelin oligodendrocyte glycoprotein35-55 (MOG35-55; […] (SEQ ID NO: 1065)) in saline and an equal volume of complete Freund's adjuvant containing […] mycobacterium tuberculosis H37RA (Disco Laboratories). All mice were given 400 ng of pertussis toxin (List Biological) intraperitoneal (i.p.) at 0 and 48 h post-immunization. The signs of neurological impairment were scored as follows: 0, no clinical disease; 1, tail weakness; 2, hindlimb weakness; 3, complete hindlimb paralysis; 4, hindlimb paralysis and some forelimb weakness; 5, moribund or dead. […] For intranasal inoculation, 10 μg of Amylin 28-33 in 10 μl PBS was gradually released into the nostrils of anesthetized mice. All animal protocols were approved by institutional IACUC.
B-1a lymphocytes were purified by cell sorting of peritoneal cells from wild type C57Bl/6 mice. […] Mice were examined daily for clinical signs of EAE and were scored on a five point scale described above.

[3] = tested on: peritoneal cells (B-1a and B-2 lymphocytes, LPMs, T lymphocytes, mast cells); assay: Binding and endocytosis of FITC-Tau fibrils by peritoneal cells after i.p. injection (confocal microscopy, flow cytometry); type: in vivo, C57BL/6 mice; conditions: 10 μg i.p., peritoneal cells stained for CD19 and F4/80
Description: C57B/6 female mice were injected with FITC-Tau 623-628, and peritoneal cells were isolated after 10 minutes, washed, stained with rat antimouse CD19 (PE), F4/80 (Alexa Fluor 647), and DAPI, washed, and plated on polylysine coated microscope slides. Cells were visualized using a Leica TCS SP8 white light laser confocal microscope.
Peptides were synthesized using solid phase techniques and commercially available Fmoc amino acids, resins, and reagents (PE Biosystems, Foster City Calif., and Bache, Torrance, Calif.) on an Applied Biosystems 433A peptide synthesizer as previously described. Wender et al. (2000) Proc. Natl. Acad. Sci. USA 97(24):13003-13008. […] The molecular weight of the peptides was confirmed using matrix assisted laser desorption mass spectrometry. To prevent excess amounts of fluorophore in the fibrils, Tau 623-628 was mixed at a ratio of 10:1 with an analog with FITC attached to the amino terminus of Tau 623-628 with an amino caproic acid linker. The resulting fibril mixture is referred to in the text as FITC-Tau.
Peritoneal cavity cells were obtained by flushing the peritoneal cavity with 10 ml of cold PBS containing 0.1% bovine serum albumin and 5 mM EDTA. […]

[4] = tested on: B-1a lymphocytes and LPMs; assay: Bioluminescence imaging of trafficking of adoptively transferred luc+ B-1a lymphocytes and LPMs; type: in vivo, C57BL/6 albino mice
Description: B-1a lymphocytes and peritoneal MΦs were purified by cell sorting of peritoneal cells isolated from luciferase transgenic mice ((B6.FVB-Ptprca Tg(CAG-luc,-GFP)L2G85Chco Thy1a/J), which express the CAT-luc-eGFP, L2G85 transgene). In the initial experiment 2×10^5 and 1×10^5 B-1a lymphocytes were injected in the peritoneum of C57BL/6 female albino mice (B6(Cg)-Tyr^c-2J/J), followed by injection of 10 μg of Tau 623-628 to activate the lymphocytes, and 0.3 mg/g body weight of luciferin substrate (D luciferin firefly L-8220 Biosynth) to initiate the bioluminescence imaging. The location of the luciferase expressing cells was measured by imaging every 5 minutes for 75 minutes.
To confirm the diminution of luminescence was due to the trafficking of the luc^+ cells, and not the degradation of the luciferin, two C57BL/6 albino mice were injected with […] peritoneal MΦs, a third with 2×10^5 B-1a lymphocytes, and fourth mouse serving as a BLI control was injected with luciferin only. The mice were subsequently injected with 10 μg of Tau 623-628 and 0.3 mg/gram of luciferin. Bioluminescence was measured immediately after the injection of luciferin and 5 minutes later. After thirty minutes the mice were reinjected with luciferin and the resultant luminescence measured. […] Imaging data were analyzed and quantified with Living Image software 4.4 (Xenogen).
Amyloidogenic peptides induce exodus of B-1a lymphocytes and LPM from the peritoneal cavity. […] The location of the luciferase expressing cells was monitored by imaging the mice every 5 minutes for 75 minutes (FIG. 5, top left). The diffuse distribution of the luminescence, corresponding to the peritoneal cavity, seen at early times, was reduced in intensity over time, with focal regions of intensity appearing to localize in inguinal lymph nodes beginning at 35 minutes (FIG. 5, top left). […]
To better assign the basis of the reduction of luminescence to the migration of the luc^+ cells, a second experiment was performed with four recipient mice. […] Bioluminescence was measured immediately after the injection of luciferin and 5 minutes later. […]

[5] = tested on: B-1a lymphocytes and peritoneal MΦs (SPM, LPM); assay: Differential gene expression (microarray, qPCR) in sorted B-1a lymphocytes and peritoneal MΦs after i.p. injection; type: in vivo, C57BL/6 mice; conditions: 10 μg i.p., cells isolated 30-40 minutes after injection
Description: Total RNA was extracted from FACS purified B-1a lymphocytes and peritoneal MΦs pooled from 3-6 C57BL/6 female mice injected with 10 μg of LPS, Tau 623-628, Amylin 28-33, or PBS using Trizol reagent and the Qiagen RNeasy micro kit. First strand cDNA was synthesized with 30-50 ng of total RNA using Superscript III first strand synthesis supermix for qRT-PCR. QPCR assays were performed using the 7900HT Fast Real Time PCR System (Applied Biosystems), and the Taqman Gene Expression Arrays (Applied Biosystems) using commercially available primers (ABI). All assays were performed according to manufacturer's instructions. The comparative Ct method for relative quantification (ΔΔCt) was used to compare gene expression. […]
Gene expression changes associated with treatment with LPS, Amylin 28-33, and Tau 623-628, were quantified using a microarray (SurePrint G3 Mouse; Agilent Technologies). […] Analysis and quantitation of the data were done using GeneSpring and Ingenuity software.
To confirm and increase the understanding of how the fibrils are activating the peritoneal cells, differential gene induction in purified B-1a and LPMs was analyzed. […] B-1a lymphocytes (CD19^hiCD5^+CD23^−) and LPMs (CD11b^hi MΦs) from the four groups of three mice were sorted into Trizol, RNA extracted, and gene expression measured using a murine Agilent whole genome expression microchip. […]

[6] = tested on: peritoneal cells; assay: Viability of peritoneal cells incubated in vitro with fibrils; type: cell-based, C57BL/6 mice; conditions: 1.0-0.125 μg/well, 30 or 120 minutes, PI staining
Description: FIG. 3. […] Peritoneal cells were isolated by lavage of C57BL/6 mice, aliquoted 500,000 cells per well of a 96 well round bottomed plate and treated with 1.0, 0.5, 0.25, 0.125 μg/well of Amylin 28-33 for 30 minutes or 120 minutes in DMEM with 10% FCS. At the end of the incubation the cells were spun, supernatant aspirated, and the cells were stained with rat anti-mouse CD11b (Pacific Blue), CD5 (PE), CD19 (APC), and incubated for 30 minutes on ice. The cells were washed once, aspirate transferred to FACS tubes, PI added, and analyzed by flow cytometry.

Row | Substance | type 1 IFN induction [1] | therapeutic effect on paralytic signs of EAE in μMT mice [2] | binding and endocytosis of fibrils by B cells and MΦs (confocal microscopy) [3] | increase in luminescence over inguinal lymph nodes ([4]; 60 min compared with 5 min, luc+ LPMs, 10 μg i.p.) [fold] | time at which focal luminescence begins to localize in inguinal lymph nodes ([4]; luc+ B-1a lymphocytes, 10 μg i.p.) [min] | photons per second in the abdominal region ([4]; luc+ B-1a lymphocytes, over 75 minutes) | pattern of gene expression (microarray heatmap) [5] | cell viability / cell death of peritoneal cells in vitro [6]
1 | VQIVYK [Tau 623-628, amyloidogenic hexapeptide of tau, forms amyloid fibrils] | induced a type 1 interferon (IFN) response | neither Tau 623-628, nor Amylin 28-33 was therapeutic | bind and are endocytosed | ~10 | 35 | rapid, dose dependent, reduction of light emitted | induce a different pattern of gene expression than LPS | –
2 | SSTNVG [Amylin 28-33, SSTNVG] | – | – | – | – | – | – | – | does not affect cell viability
